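Following 48 hours of exposure in 96-well plates, responses at five concentrations were used to interpolate endpoints linearly. Abbreviation: GI50, concentration required for 50% inhibition of growth. TGI: total growth inhibition.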
Assays:
Assay in all cases: growth of human tumour cells (NCI), 48 h; in the data active = GI50 below about 0.43 µM; inactive = the rest
IGROV1 ovarian = system: IGROV1 ovarian
UO-31 renal = system: UO-31 renal
HCT-116 colon = system: HCT-116 colon
MOLT-4 leukemia = system: MOLT-4 leukemia
DU-145 prostate = system: DU-145 prostate
KM12 colon = system: KM12 colon
SNB-75 CNS = system: SNB-75 CNS
K-562 leukemia = system: K-562 leukemia
SF-295 CNS = system: SF-295 CNS
RXF 393 renal = system: RXF 393 renal
SNB-19 CNS = system: SNB-19 CNS
SK-MEL-5 melanoma = system: SK-MEL-5 melanoma
MDA-MB-231 breast = system: MDA-MB-231 breast
TK-10 renal = system: TK-10 renal
HOP-62 NSCLC = system: HOP-62 NSCLC
CCRF-CEM leukemia = system: CCRF-CEM leukemia
U251 CNS = system: U251 CNS
SW-620 colon = system: SW-620 colon
NCI-H23 lung = system: NCI-H23 lung
MDA-MB-435 = system: MDA-MB-435
HT29 colon = system: HT29 colon
ACHN renal = system: ACHN renal
SK-MEL-28 melanoma = system: SK-MEL-28 melanoma
A549 NSCLC = system: A549 NSCLC
HS 578T breast = system: HS 578T breast
SF-268 CNS = system: SF-268 CNS
OVCAR-3 ovarian = system: OVCAR-3 ovarian
CAKI-1 renal = system: CAKI-1 renal
UACC-257 melanoma = system: UACC-257 melanoma
MDA-N = system: MDA-N
T-47D breast = system: T-47D breast
HOP-92 NSCLC = system: HOP-92 NSCLC
OVCAR-8 ovarian = system: OVCAR-8 ovarian
LOX IMVI melanoma = system: LOX IMVI melanoma
SN12C renal = system: SN12C renal
M14 melanoma = system: M14 melanoma
NCI/ADR-RES ovarian = system: NCI/ADR-RES ovarian
A498 renal = system: A498 renal
SK-MEL-2 melanoma = system: SK-MEL-2 melanoma
OVCAR-5 ovarian = system: OVCAR-5 ovarian
PC-3 prostate = system: PC-3 prostate
786-0 renal = system: 786-0 renal
COLO 205 colon = system: COLO 205 colon
RPMI-8226 leukemia = system: RPMI-8226 leukemia
UACC-62 melanoma = system: UACC-62 melanoma
SR leukemia = system: SR leukemia
NCI-H226 lung = system: NCI-H226 lung
OVCAR-4 ovarian = system: OVCAR-4 ovarian
EKVX NSCLC = system: EKVX NSCLC
MCF7 breast = system: MCF7 breast
NCI-H522 lung = system: NCI-H522 lung
HCT-15 colon = system: HCT-15 colon
HL-60(TB) leukemia = system: HL-60(TB) leukemia
MALME-3M melanoma = system: MALME-3M melanoma
BT-549 breast = system: BT-549 breast
NCI-H460 lung = system: NCI-H460 lung
SF-539 CNS = system: SF-539 CNS
SK-OV-3 ovarian = system: SK-OV-3 ovarian
HCC-2998 colon = system: HCC-2998 colon

CCCCNC(=O)Cn1c2ccc(Br)cc2c2nc3ccccc3nc21
> 100 µM: TGI (IGROV1 ovarian) | TGI (UO-31 renal) | TGI (HCT-116 colon) | TGI (MOLT-4 leukemia) | TGI (DU-145 prostate) | TGI (KM12 colon) | TGI (SNB-75 CNS) | TGI (K-562 leukemia) | TGI (SF-295 CNS) | TGI (RXF 393 renal) | TGI (SNB-19 CNS) | TGI (SK-MEL-5 melanoma) | TGI (MDA-MB-231 breast) | TGI (TK-10 renal) | TGI (HOP-62 NSCLC) | TGI (CCRF-CEM leukemia) | TGI (U251 CNS) | TGI (SW-620 colon) | TGI (NCI-H23 lung) | TGI (MDA-MB-435) | TGI (HT29 colon) | TGI (ACHN renal) | TGI (SK-MEL-28 melanoma) | TGI (A549 NSCLC) | TGI (HS 578T breast) | TGI (SF-268 CNS) | TGI (OVCAR-3 ovarian) | TGI (CAKI-1 renal) | TGI (UACC-257 melanoma) | TGI (MDA-N) | TGI (T-47D breast) | TGI (HOP-92 NSCLC) | TGI (OVCAR-8 ovarian) | TGI (LOX IMVI melanoma) | TGI (SN12C renal) | TGI (M14 melanoma) | TGI (NCI/ADR-RES ovarian) | TGI (A498 renal) | TGI (SK-MEL-2 melanoma) | TGI (OVCAR-5 ovarian) | TGI (PC-3 prostate) | TGI (786-0 renal) | TGI (COLO 205 colon) | TGI (RPMI-8226 leukemia) | TGI (UACC-62 melanoma) | TGI (SR leukemia) | TGI (NCI-H226 lung)

N#Cc1c(-c2ccc([N+](=O)[O-])cc2)c(C#N)c(=O)n(NS(=O)(=O)c2ccccc2)c1O
35.5 µM: TGI (SNB-19 CNS)
> 100 µM: TGI (OVCAR-4 ovarian) | TGI (IGROV1 ovarian) | TGI (HCT-116 colon) | TGI (MOLT-4 leukemia) | TGI (K-562 leukemia) | TGI (SF-295 CNS) | TGI (RXF 393 renal) | TGI (EKVX NSCLC) | TGI (MCF7 breast) | TGI (SK-MEL-5 melanoma) | TGI (MDA-MB-231 breast) | TGI (NCI-H522 lung) | TGI (TK-10 renal) | TGI (HCT-15 colon) | TGI (HOP-62 NSCLC) | TGI (HL-60(TB) leukemia) | TGI (CCRF-CEM leukemia) | TGI (U251 CNS) | TGI (SW-620 colon) | TGI (MDA-MB-435) | TGI (HT29 colon) | TGI (ACHN renal) | TGI (SK-MEL-28 melanoma) | TGI (A549 NSCLC) | TGI (OVCAR-3 ovarian) | TGI (CAKI-1 renal) | TGI (UACC-257 melanoma) | TGI (MDA-N) | TGI (MALME-3M melanoma) | TGI (HOP-92 NSCLC) | TGI (OVCAR-8 ovarian) | TGI (BT-549 breast) | TGI (NCI-H460 lung) | TGI (LOX IMVI melanoma) | TGI (SN12C renal) | TGI (SF-539 CNS) | TGI (SK-OV-3 ovarian) | TGI (M14 melanoma) | TGI (NCI/ADR-RES ovarian) | TGI (A498 renal) | TGI (SK-MEL-2 melanoma) | TGI (OVCAR-5 ovarian) | TGI (PC-3 prostate) | TGI (786-0 renal) | TGI (COLO 205 colon) | TGI (RPMI-8226 leukemia) | TGI (UACC-62 melanoma) | TGI (HCC-2998 colon) | TGI (NCI-H226 lung)

O=c1[nH]c(=O)n(C2CC(O)C(CO)O2)cc1C(F)(F)F (stereo not drawn)
7.21 µM: TGI (SF-539 CNS)
> 91.8 µM: TGI (UACC-62 melanoma)
active: GI50 (MCF7 breast) 0.038 µM | GI50 (SK-MEL-5 melanoma) 0.399 µM | GI50 (HL-60(TB) leukemia) 0.409 µM | GI50 (NCI-H460 lung) 0.337 µM
> 100 µM: TGI (OVCAR-4 ovarian) | TGI (IGROV1 ovarian) | TGI (UO-31 renal) | TGI (HCT-116 colon) | TGI (MOLT-4 leukemia) | TGI (DU-145 prostate) | TGI (KM12 colon) | TGI (SNB-75 CNS) | TGI (K-562 leukemia) | TGI (SF-295 CNS) | TGI (RXF 393 renal) | TGI (EKVX NSCLC) | TGI (SNB-19 CNS) | TGI (SK-MEL-5 melanoma) | TGI (MDA-MB-231 breast) | TGI (NCI-H522 lung) | TGI (TK-10 renal) | TGI (HCT-15 colon) | TGI (HOP-62 NSCLC) | TGI (CCRF-CEM leukemia) | TGI (U251 CNS) | TGI (SW-620 colon) | TGI (NCI-H23 lung) | TGI (MDA-MB-435) | TGI (HT29 colon) | TGI (ACHN renal) | TGI (SK-MEL-28 melanoma) | TGI (A549 NSCLC) | TGI (HS 578T breast) | TGI (SF-268 CNS) | TGI (OVCAR-3 ovarian) | TGI (CAKI-1 renal) | TGI (UACC-257 melanoma) | TGI (T-47D breast) | TGI (MALME-3M melanoma) | TGI (HOP-92 NSCLC) | TGI (OVCAR-8 ovarian) | TGI (BT-549 breast) | TGI (NCI-H460 lung) | TGI (LOX IMVI melanoma) | TGI (SN12C renal) | TGI (SK-OV-3 ovarian) | TGI (NCI/ADR-RES ovarian) | TGI (SK-MEL-2 melanoma) | TGI (OVCAR-5 ovarian) | TGI (PC-3 prostate) | TGI (COLO 205 colon) | TGI (RPMI-8226 leukemia) | TGI (SR leukemia) | TGI (HCC-2998 colon) | TGI (NCI-H226 lung)
> 92 µM: TGI (A498 renal)
inactive: GI50 (OVCAR-4 ovarian) > 100 µM | GI50 (IGROV1 ovarian) 9.02 µM | GI50 (UO-31 renal) 1.75 µM | GI50 (HCT-116 colon) 1.7 µM | GI50 (MOLT-4 leukemia) 1.65 µM | GI50 (DU-145 prostate) 2.85 µM | GI50 (KM12 colon) > 100 µM | GI50 (SNB-75 CNS) > 40.9 µM | GI50 (SF-295 CNS) 2.79 µM | GI50 (RXF 393 renal) 9.38 µM | GI50 (EKVX NSCLC) > 54.1 µM | GI50 (SNB-19 CNS) 2.96 µM | GI50 (MDA-MB-231 breast) > 100 µM | GI50 (NCI-H522 lung) 18.3 µM | GI50 (TK-10 renal) > 100 µM | GI50 (HCT-15 colon) 46 µM | GI50 (HOP-62 NSCLC) 3.68 µM | GI50 (CCRF-CEM leukemia) 0.557 µM | GI50 (U251 CNS) 4.42 µM | GI50 (SW-620 colon) 9.78 µM | GI50 (NCI-H23 lung) 1.95 µM | GI50 (MDA-MB-435) 5.31 µM | GI50 (HT29 colon) 33.8 µM | GI50 (ACHN renal) 1.3 µM | GI50 (SK-MEL-28 melanoma) > 62.1 µM | GI50 (A549 NSCLC) 3.35 µM | GI50 (HS 578T breast) > 100 µM | GI50 (SF-268 CNS) 3.14 µM | GI50 (OVCAR-3 ovarian) > 77.4 µM | GI50 (CAKI-1 renal) 1.79 µM | GI50 (UACC-257 melanoma) 8.61 µM | GI50 (T-47D breast) 3.34 µM | GI50 (MALME-3M melanoma) > 49.9 µM | GI50 (HOP-92 NSCLC) > 100 µM | GI50 (OVCAR-8 ovarian) 5.12 µM | GI50 (BT-549 breast) 4.61 µM | GI50 (LOX IMVI melanoma) 0.936 µM | GI50 (SN12C renal) 3.8 µM | GI50 (SF-539 CNS) 0.456 µM | GI50 (SK-OV-3 ovarian) 10.1 µM | GI50 (M14 melanoma) 1.01 µM | GI50 (NCI/ADR-RES ovarian) 4.81 µM | GI50 (SK-MEL-2 melanoma) > 100 µM | GI50 (OVCAR-5 ovarian) > 100 µM | GI50 (PC-3 prostate) > 100 µM | GI50 (786-0 renal) 0.464 µM | GI50 (COLO 205 colon) 25 µM | GI50 (RPMI-8226 leukemia) > 20.3 µM | GI50 (UACC-62 melanoma) 2.59 µM | GI50 (SR leukemia) 1.02 µM | GI50 (HCC-2998 colon) 11.3 µM | GI50 (NCI-H226 lung) 20.7 µM
> 34.5 µM: TGI (M14 melanoma)
